The assay deals with mice. Kind of assay: Neuropharmacological Assay (SmartCube): automated behavioral signature of compound-treated mice compared with a database of reference drug classes. Particulars: for AD / AG / AN / CE / HL / MS / PS / UK / AP / AX / SH: 3.0 mg/kg i.p., 15 min before test; for minimal effective dose: Mus musculus, ip. The format is in vivo. An excerpt: Neurosci. 2011 Sep. 9; 5: 103 (doi: 10.3389/fnins.2011.00103) (“Roberds”). As reported in Roberds, because psychiatric diseases generally result from disorders of cell-cell communication or circuitry, intact systems are useful in detecting improvement in disease-relevant endpoints. These endpoints are typically behavioral in nature, often requiring human observation and interpretation. To facilitate testing of multiple compounds for behavioral effects relevant to psychiatric disease, PsychoGenics, Inc. (Tarrytown, NY, “PGI”) developed SmartCube™ an automated system in which behaviors of compound-treated mice are captured by digital video and analyzed with computer algorithms. (D. Brunner et al. Drug Discov. Today 2002, 7:S107-S112). PGI Analytical Systems uses data from SmartCube™ to compare the behavioral signature of a test compound to a database of behavioral signatures obtained using a large set of diverse reference compounds. (The composition of the database as well as validation of the method is further described in Roberds). In this way, the neuropharmacological effects of a test compound can be predicted by similarity to major classes of compounds, such as antipsychotics, anxiolytics and antidepressants.
The SmartCube™ system produces an activity signature indicating the probability that the activity of the test compound at the administered dose matches a given class of neuropharmacological agents. (See, e.g., Roberds, FIGS. 2 and 3). The test compound is simultaneously compared against multiple classes of agents; thus, a separate probability is generated for each behavioral effect measured (e.g., anxiolytic activity, analgesic activity, etc.). In table 2 below, these probabilities are reported for each behavioral effect measured as described in Table 1 below.
Provided compounds were dissolved in a mixture of Pharmasolve™ (N-methyl-2-pyrrolidone), polyethylene glycol and propylene glycol, and were injected i.p. 15 min. before the behavioral test. For each compound, injections were administered at 3 different doses. For each behavioral effect measured, results for the 3.0 mg/kg dose are presented. The potency of many of the compounds in the table was also determined in the SmartCube™ system. Test compounds were routinely examined at dose levels of 0.3, 1, 3 and 10 mg per kg (mpk), although the dose range was increased or decreased, if necessary, to obtain a full dose response curve. A compound's minimal effective dose (MED) is a measure of the compound's potency. The MED was defined as the dose (in mpk) having 45% or more total activity in SmartCube. If only one dose was tested, that dose is shown in the MED column of Table 2 even though the dose is not known to be the MED.

[1] abbreviates: dose having 45% or more total activity in SmartCube, i.p., if only one dose was tested, that dose is shown, hydrochloride.
[2] abbreviates: probability that activity matches this class of agents.
[3] abbreviates: probability that activity matches this class of agents, hydrochloride, 3 mg/kg.
Setting [4] is: minimal effective dose: dose having 45% or more total activity in SmartCube, i.p., if only one dose tested, that dose is shown, read-out: MED.
Where [5] appears, read: SmartCube class probability, hydrochloride, 3 mg/kg.

Counter-ions that a name gives are not always drawn. Like-named read-outs stand apart in the source and are kept apart here. Some results are limits rather than exact numbers.

Regarding `CNC1CCc2c(C)sc(C)c2C1` (single isomer, unassigned) [Compound 30, N, 1,3-trimethyl-4,5,6,7-tetrahydro-2-benzothiophen-5-amine hydrochloride], the “MED (minimal effective dose)” value under setting [1] amounted to 0.3 mpk. For the same molecule, under setting [2], the AD entry is reported as “ND (^ <4%)”, the AG entry is given as “ND (^ <4%)”, the AN entry is recorded as “ND (^ <4%)” and the CE result is listed as “ND (^ <4%)”. Besides, under setting [2], the HL result is on record as “ND (^ <4%)”, the MS entry is “ND (^ <4%)”, the PS entry is recorded as “ND (^ <4%)” and the UK entry is given as “ND (^ <4%)”. Also, under setting [3], the AP entry is given as “++++ (≥74%)”, the AX result is reported as “ND (^ <4%)” and the SH entry was “+ (≥4%)”.
With `CNC1CCc2csc(C(F)(F)F)c2C1` (single isomer, unassigned) [Compound 62, N-methyl-3-(trifluoromethyl)-4,5,6,7-tetrahydro-2-benzothiophen-5-amine hydrochloride], the “MED (minimal effective dose)” value under setting [1] is recorded as 1 mpk. Also, under setting [2], the AG result is given as “ND (^ <4%)”, the AN entry is given as “ND (^ <4%)”, the AX result is given as “ND (^ <4%)” and the CE result was “ND (^ <4%)”. Moreover, under setting [2], the HL result was “ND (^ <4%)”, the MS result was “ND (^ <4%)”, the PS result was “ND (^ <4%)” and the SH result is recorded as “ND (^ <4%)”. In addition, the UK entry under setting [2] is “ND (^ <4%)”. Also, under setting [3], the AD result was “++++ (≥74%)” and the AP entry was “+ (≥4%)”.
In the case of `Cc1sc(F)c2c1CC(N)CC2` (stereo not drawn) [Compound 203, 1-fluoro-3-methyl-4,5,6,7-tetrahydro-2-benzothiophen-5-amine hydrochloride], under setting [4], the minimal effective dose worked out at 3 mg/kg. Where the note is “SmartCube class probability”, the AD result is on record as “ND (^ <4%)”, the AG entry is “ND (^ <4%)”, the AN entry is listed as “ND (^ <4%)” and the AP result is recorded as “ND (^ <4%)”. Also, where the note is “SmartCube class probability”, the AX result is recorded as “ND (^ <4%)”, the CE entry is given as “ND (^ <4%)”, the HL result is reported as “ND (^ <4%)” and the MS result is reported as “ND (^ <4%)”. For the same molecule, for the setting “SmartCube class probability”, the PS result is listed as “ND (^ <4%)”, the SH entry was “ND (^ <4%)” and the UK result is reported as “+++ (≥49%)”.
For `CNC1CCc2scc(Cl)c2C1` (stereo not drawn) [Compound 90, 3-chloro-N-methyl-4,5,6,7-tetrahydrobenzothiophen-5-amine hydrochloride], where the note is “dose having 45% or more total activity in SmartCube, i.p., if only one dose was tested, that dose is shown, read-out: MED (minimal effective dose)”, the minimal effective dose was found to be 3 mg/kg. Under setting [2], the AD entry is “ND (^ <4%)”, the AG result is “ND (^ <4%)”, the AN result is “ND (^ <4%)” and the AP result was “+++ (≥49%)”. Also, under setting [2], the AX result is given as “ND (^ <4%)”, the CE result was “ND (^ <4%)”, the HL result is “ND (^ <4%)” and the MS entry is reported as “ND (^ <4%)”. Under setting [2], the PS entry was “ND (^ <4%)”, the SH result was “ND (^ <4%)” and the UK entry is listed as “ND (^ <4%)”.
On to `CNC1CCc2cc(F)sc2C1` (single isomer, unassigned) [Compound 80, 2-fluoro-N-methyl-4,5,6,7-tetrahydrobenzothiophen-6-amine hydrochloride], for which, under setting [1], the “MED (minimal effective dose)” value is reported as 3 mpk. Under setting [2], the AG result is recorded as “ND (^ <4%)”, the AN entry was “ND (^ <4%)”, the CE result is reported as “ND (^ <4%)” and the HL entry is on record as “ND (^ <4%)”. Under setting [2], the MS entry is “ND (^ <4%)”, the PS result is “ND (^ <4%)”, the SH entry is “ND (^ <4%)” and the UK entry is on record as “ND (^ <4%)”. Also, under setting [3], the AD entry is listed as “++ (≥24%)”, the AP result is reported as “+ (≥4%)” and the AX result is “+ (≥4%)”.
For `NC1CCc2c(Cl)csc2C1` (stereo not drawn) [Compound 217, 3-chloro-4,5,6,7-tetrahydrobenzothiophen-6-amine hydrochloride], the minimal effective dose under setting [4] was below 3 mg/kg. Also, where the note is “SmartCube class probability”, the AD result is reported as “ND (^ <4%)”, the AG entry is listed as “ND (^ <4%)”, the AN entry was “ND (^ <4%)” and the AP entry is given as “+ (≥4%)”. For the setting “SmartCube class probability”, the AX entry is listed as “++ (≥24%)”, the CE entry is “ND (^ <4%)”, the HL entry is given as “+ (≥4%)” and the MS result is “ND (^ <4%)”. Under “SmartCube class probability”, the PS result is “++ (≥24%)”, the SH result is “ND (^ <4%)” and the UK result was “+ (≥4%)”.
`CNC1CCc2cc(Cl)sc2C1` (single isomer, unassigned) [Compound 146, 2-chloro-N-methyl-4,5,6,7-tetrahydrobenzothiophen-6-amine hydrochloride]: under “SmartCube class probability”, the AG result is reported as “ND (^ <4%)”, the AN entry was “ND (^ <4%)”, the AP result is listed as “ND (^ <4%)” and the AX entry is “ND (^ <4%)”. Besides, for the setting “SmartCube class probability”, the CE result is listed as “ND (^ <4%)”, the HL result is “ND (^ <4%)”, the MS result is “ND (^ <4%)” and the PS result is “ND (^ <4%)”. Besides, under “SmartCube class probability”, the SH result is “ND (^ <4%)”. Moreover, under setting [5], the AD result is reported as “ND (^ <4%)” and the UK result is given as “+++ (≥49%)”. In addition, the MED (minimal effective dose: dose having 45% or more total activity in SmartCube, i.p., if only one dose tested, that dose is shown) worked out at 3 mpk.
Regarding `CNC1(C)CCc2ccsc2C1` (single isomer, unassigned) [Compound 50, N, 6-dimethyl-5,7-dihydro-4H-benzothiophen-6-amine hydrochloride], the “MED (minimal effective dose)” value under setting [1] worked out at 3.0 mpk. Besides, under setting [2], the AG result was “ND (^ <4%)”, the AN entry is reported as “ND (^ <4%)”, the AP result is “ND (^ <4%)” and the HL entry is “ND (^ <4%)”. Moreover, under setting [2], the PS entry is given as “ND (^ <4%)”, the SH entry is given as “ND (^ <4%)” and the UK result is “ND (^ <4%)”. Besides, under setting [3], the AD entry is “+++ (≥49%)”, the AX result is “ND (^ <4%)”, the CE result is “ND (^ <4%)” and the MS result was “ND (^ <4%)”.
As for `CNC1CCc2sccc2C1.Cl` (single isomer, unassigned) [Compound 12, N-methyl-4,5,6,7-tetrahydrobenzothiophen-5-amine hydrochloride], the “MED (minimal effective dose)” value under setting [1] is recorded as 1.0 mpk. In addition, under setting [2], the AG result is listed as “ND (^ <4%)”, the AN result is “ND (^ <4%)”, the CE result is “ND (^ <4%)” and the HL result is reported as “ND (^ <4%)”. Under setting [2], the MS result is “ND (^ <4%)”, the PS entry is given as “ND (^ <4%)”, the SH result is given as “ND (^ <4%)” and the UK entry was “ND (^ <4%)”. Further, under setting [3], the AD entry is on record as “++ (≥24%)”, the AP entry is “+ (≥4%)” and the AX entry was “++ (≥24%)”.
Regarding `NC1CCc2scc(C3CC3)c2C1` (stereo not drawn) [Compound 205, 3-cyclopropyl-4,5,6,7-tetrahydrobenzothiophen-5-amine hydrochloride], under setting [4], the minimal effective dose was above 3 mg/kg. For the same molecule, under “SmartCube class probability”, the AD entry is “ND (^ <4%)”, the AG result was “ND (^ <4%)”, the AN entry is “ND (^ <4%)” and the AP entry is recorded as “ND (^ <4%)”. Under “SmartCube class probability”, the AX result is on record as “ND (^ <4%)”, the CE entry was “ND (^ <4%)”, the HL result is recorded as “ND (^ <4%)” and the MS result is “ND (^ <4%)”. Besides, where the note is “SmartCube class probability”, the PS result was “ND (^ <4%)”, the SH result is “ND (^ <4%)” and the UK entry is “++ (≥24%)”.

Source of the values: patent publication US20260274814A1, “THIENYL COMPOUNDS FOR THE TREATMENT OF A CENTRAL NERVOUS SYSTEM DISEASE OR DISORDER” (Coreterra Therapeutics, Inc., priority 2023, published 2026).
